Experimental findings from patent US11697818B2, “Pyruvate-responsive biosensor, and construction method and use thereof” (priority 2020, dated 2023) are described below.

SMILES strings stand for the structures.

This assay relates to strain 168-PR containing the plasmid PHT01-P43D-GFP. The experiment in a line: Specificity (orthogonality) of pyruvate biosensor towards inducing agents. The format is cell-based, Bacillus subtilis. The following applies: 5 g of inducing agent added to the medium; strain 168-PR with PHT01-P43D-GFP. As to the method:
2. Detection method for Relative fluorescence intensity: The strain to be determined for the fluorescence intensity is streaked into LB solid medium containing chloramphenicol (5 μg/mL) in a plate. Single colonies are picked up and inoculated into LB liquid medium and incubated at 37° C. and 220 rpm for 12 h. Then the cell suspension is inoculated into 200 μL of LB liquid medium in a 96-well fluorescent microplate in an amount of 2% (V/V), and incubated at 37° C. and 900 rpm. The microplate is removed at different times, and the fluorescence intensity (excitation light: 488 nm, absorption light: 520 nm) and cell density (600 nm) are determined on the Cytation microplate reader (BioTek).

Consider `CC(C)S[C@@H]1O[C@H](CO)[C@H](O)[C@H](O)[C@H]1O` [IPTG], for which the “induction of the activity of the pyruvate biosensor” value (“induction” for short) is recorded as “only pyruvate can significantly induce”. With `CC(=O)O` [acetic acid], the “induction” value is on record as “only pyruvate can significantly induce”. To `CC(=O)C(C)O` (stereo not shown) [acetoin] belongs “only pyruvate can significantly induce”; to `C[C@H](N)C(=O)O` [alanine], “only pyruvate can significantly induce”; to `O=C[C@@H](O)[C@H](O)[C@H](O)CO` [arabinose], “only pyruvate can significantly induce”. To `O=C(O)[C@@H](O)[C@@H](O)[C@H](O)[C@@H](O)C(=O)O` [glucaric acid] belongs “only pyruvate can significantly induce”. To `CC(O)C(=O)O` (stereo not shown) [lactic acid] belongs “only pyruvate can significantly induce”; to `OC[C@H]1O[C@@H](O[C@H]2[C@H](O)[C@@H](O)C(O)O[C@@H]2CO)[C@H](O)[C@@H](O)[C@H]1O` (stereo partly shown) [lactose], “only pyruvate can significantly induce”; to `O=C[C@H](O)[C@@H](O)[C@H](O)CO` [xylose], “only pyruvate can significantly induce”. On to `O=C(O)CCC(=O)C(=O)O` [α-ketoglutaric acid], for which the “induction” value is recorded as “only pyruvate can significantly induce”.
